Assay results as given in patent publication EP2272817A1, “PAI-1 INHIBITOR” (Institute of Medicinal Molecular Design, Inc., priority 2008, dated 2009).
Read-outs that look alike come from different tables or passages of the source.

How the values were obtained:
recombinant human PAI-1 [1] = target: T1, recombinant human PAI-1 (Homo sapiens, UniProt P05121); test: Test Example 2: Human PAI-1 Inhibitory Activity (pH 7.4 HEPES buffer, 10 minutes incubation with two-chain tPA); format: biochemical; set-up: purchased Molecular Innovations, Inc; conditions: read-out: Inhibition Rate of PAI-1 Activity (%)
Protocol: 0.1 M HEPES, 0.1 M NaCl. 1 mM EDTA. 0.1 % Polyethylene glycol 8,000 (Hampton Research Corporation),
2 mM Dimethyldecylphoshine oxide [Apo-10] (Fluka Corporation)

recombinant human PAI-1 [2] = target: T1, recombinant human PAI-1; test: biochemical; conditions: for inhibition at 25 µM: read-out: Inhibition Rate of PAI-1 Activity (%), Compound Concentration 25µM
recombinant human PAI-1 [3] = target: T1, recombinant human PAI-1; test: Test Example 4: Human PAI-1 Inhibitory Activity (amount of PAI-1 bound to plate-coated one-chain tPA, ELISA); format: biochemical; set-up: purchased Molecular Innovations, Inc; conditions: human PAI-1 bound to tPA, read-out: Inhibition Rate of PAI-1 Activity (%); for inhibition at 0.3 µM: Compound Concentration 0.3µM; for inhibition at 1 µM: Compound Concentration 1µM; for inhibition at 3 µM: Compound Concentration 3µM
Protocol: 100 µl of tPA solution, where one-chain recombinant tPA (hereinafter reffered to as tPA; American diagnostica, inc.) had been diluted with Buffer A to acheive a concentration of 10 µg/ml, was added to each well of a 96-well plate (Nunc Maxisorp), and the plate was incubated for one night at 4 °C to be coated with tPA. Then, after suction of tPA solution from the 96-well plate, the plate was rinsed successively with Buffer A and Buffer B. To Buffer B, solutions of the compound according to the present invention dissolved with DMSO (final DMSO concentration: 0.2 %) and recombinant human PAI-1 (Molecular Innovations, Inc.) were added. The mixtures were blended so that the final concentrations would be 0.1 to 3.0 µM and 50 ng/ml respectively, and were incubated for 15 minutes on ice. These mixed solutions were added to the rinsed 96-well plate at 100 µl/well, and incubated for 60 minutes at room temperature. To prepare a calibration curve, PAI-1 solutions without the compound according to the present invention (solutions where the final concentrations being 100, 50, 25, 12.5, 6.25, 3.13, or 1.56 ng/ml PAI-1) were added at 100 µl/well, and the plate was incubated for 60 minutes at room temperature, as standard.
After incubation, the reaction mixture was removed by suction, and each well was rinsed with Wash Buffer. Next, anti-human PAI-1 monoclonal antibody (PROGEN Inc.) diluted with Buffer C to be 3.0 µg/ml was added to the 96-well plate at 100 µl/well, and the plate was incubated for 1 hour at room temperature. After rinsing each well with Wash Buffer, alkaline phosphatase-labeled goat anti-mouse IgG (H+L) (Jackson ImmunoResearch, Inc.) diluted with Buffer D to be 0.12 µg/ml was added at 100 µl/well, and the plate was incubated for 1 hour at room temperature. After rinsing each well with Wash Buffer, 1.0 mg/ml p-Nitrophenyl Phosphate (SIGMA) was added to the 96-well plate at 100 µl/well to start the reaction. After 30 to 60 minutes, 25 µl of 0.5 N NaOH was added to stop the reaction, and the absorbance was measured at 405 nm using a multiplate reader (GENios; TECAN G.M.B.H.).
Based on the calibration curve prepared from the standard wells, amounts of PAI-1 bound to tPA in the wells that had been treated with the compound according to the present invention were calculated, and the PAI-1 inhibition rates by the compounds according to the present invention were obtained by the following equation. [API-1InhibitionRate(%)] = [1-(amountofPAI-1boundtotPaonthewellbytreatmentwiththecompondaccordingtothepresentinvention)/(amountofPAI-1boundtotPAonthewellbytreatmentwithPAI-1solutionnotincledingthecompondaccordingtotheinvention(solution having the final concentration of 50 nb/ml PAI-1)] × 100 [formula] • <Composition of Buffer A> 0.1 M Tris-HCl, 150 mM NaCl, pH 7.7 • <Composition of Buffer B> 50 mM sodium phosphate, 0.1 M NaCl, 1 mM EDTA, pH 6.6 • <Composition of Buffer C> 50 mM sodium phosphate, 100 mM NaCl, pH 7.4 • <Composition of Buffer D> 0.01 M Tris-HCl, 0.25 M NaCl, pH 8.0 • <Compositon of Wash Buffer> 0.05 % Tween 20, 0.1 % BSA in Buffer A • <Composition of p-Nitrophenyl Phosphate solution> 1 M Diethanolamine 0.5 mM MgCl2, p-Nitrophenyl phosphate, pH 9.8

recombinant rat PAI-1 = target: T2, recombinant rat PAI-1 (Rattus norvegicus, UniProt P20961); test: biochemical; conditions: read-out: Inhibition Rate of PAI-1 Activity (%)
T2 sequence (P20961 24-402): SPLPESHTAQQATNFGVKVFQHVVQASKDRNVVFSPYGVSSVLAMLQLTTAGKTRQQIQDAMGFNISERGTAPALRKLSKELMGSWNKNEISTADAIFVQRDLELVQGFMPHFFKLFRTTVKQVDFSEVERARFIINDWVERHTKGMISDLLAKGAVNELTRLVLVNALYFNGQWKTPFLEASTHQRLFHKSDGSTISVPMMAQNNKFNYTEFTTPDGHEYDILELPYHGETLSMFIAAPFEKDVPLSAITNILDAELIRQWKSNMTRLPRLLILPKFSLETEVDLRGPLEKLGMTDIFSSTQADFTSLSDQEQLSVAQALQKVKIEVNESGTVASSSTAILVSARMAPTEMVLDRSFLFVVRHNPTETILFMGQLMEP

[4] = read-out: Inhibition Rate of PAI-1 Activity (%), Compound Concentration 5µM
[5] = read-out: Inhibition Rate of PAI-1 Activity (%), Compound Concentration 10µM

T1 sequence (P05121 24-402): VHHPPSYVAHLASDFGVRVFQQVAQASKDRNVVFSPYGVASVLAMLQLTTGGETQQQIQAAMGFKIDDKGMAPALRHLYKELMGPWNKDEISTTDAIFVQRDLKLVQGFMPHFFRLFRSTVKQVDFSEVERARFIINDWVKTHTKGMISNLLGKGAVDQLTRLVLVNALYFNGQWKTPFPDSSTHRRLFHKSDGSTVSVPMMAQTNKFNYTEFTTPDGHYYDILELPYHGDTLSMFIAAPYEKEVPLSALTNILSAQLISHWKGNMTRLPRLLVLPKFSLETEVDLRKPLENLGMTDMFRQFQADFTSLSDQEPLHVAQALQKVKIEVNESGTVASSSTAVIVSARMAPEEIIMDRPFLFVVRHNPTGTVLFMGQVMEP

CCCOc1ccc(N(Cc2ccc(C(C)(C)C)cc2)C(=O)C(=O)O)c(-c2ccc(OC(F)(F)F)cc2)c1 [Compound 198]
inhibition at 0.1 µM (recombinant human PAI-1 [1]): 11% | inhibition at 0.3 µM (recombinant human PAI-1 [1]): 8% | inhibition at 1 µM (recombinant human PAI-1 [1]): 33% | inhibition at 3 µM (recombinant human PAI-1 [1]): > 99% | inhibition at 5 µM (recombinant human PAI-1 [2]; [4]): 79% | inhibition at 10 µM (recombinant human PAI-1 [2]; [5]): 95% | inhibition at 25 µM (recombinant human PAI-1 [2]): 85% | inhibition at 0.3 µM (recombinant human PAI-1 [3]): 6% | inhibition at 1 µM (recombinant human PAI-1 [3]): 4% | inhibition at 3 µM (recombinant human PAI-1 [3]): 33% | inhibition at 0.3 µM (recombinant rat PAI-1): 4% | inhibition at 1 µM (recombinant rat PAI-1): 12% | inhibition at 3 µM (recombinant rat PAI-1): 84% | inhibition at 10 µM (recombinant rat PAI-1): 89%

CCCCc1ccc(CN(C(=O)C(=O)O)c2ccc(-c3ccc(C(C)(C)C)cc3)cc2)cc1 [Compound 206]
inhibition at 0.1 µM (recombinant human PAI-1 [1]): 3% | inhibition at 0.3 µM (recombinant human PAI-1 [1]): 13% | inhibition at 1 µM (recombinant human PAI-1 [1]): 66% | inhibition at 3 µM (recombinant human PAI-1 [1]): > 99% | inhibition at 5 µM (recombinant human PAI-1 [2]; [4]): 78% | inhibition at 10 µM (recombinant human PAI-1 [2]; [5]): 92% | inhibition at 25 µM (recombinant human PAI-1 [2]): 89% | inhibition at 0.3 µM (recombinant human PAI-1 [3]): 0% | inhibition at 1 µM (recombinant human PAI-1 [3]): 17% | inhibition at 3 µM (recombinant human PAI-1 [3]): 40% | inhibition at 0.3 µM (recombinant rat PAI-1): 3% | inhibition at 1 µM (recombinant rat PAI-1): 29% | inhibition at 3 µM (recombinant rat PAI-1): 90% | inhibition at 10 µM (recombinant rat PAI-1): 88%

CC(C)(C)c1ccc(Oc2ccc(-c3ccc(OC(F)(F)F)cc3)cc2CCC(=O)O)cc1 [Compound 13]
inhibition at 0.1 µM (recombinant human PAI-1 [1]): 5% | inhibition at 0.3 µM (recombinant human PAI-1 [1]): 8% | inhibition at 1 µM (recombinant human PAI-1 [1]): 36% | inhibition at 3 µM (recombinant human PAI-1 [1]): 99% | inhibition at 5 µM (recombinant human PAI-1 [2]; read-out: Inhibition Rate of PAI Activity (%), Compound Concentration 5µM): 83% | inhibition at 10 µM (recombinant human PAI-1 [2]; read-out: Inhibition Rate of PAI Activity (%), Compound Concentration 10µM): 93% | inhibition at 0.3 µM (recombinant human PAI-1 [3]): 7% | inhibition at 1 µM (recombinant human PAI-1 [3]): 14% | inhibition at 3 µM (recombinant human PAI-1 [3]): 41% | inhibition at 0.3 µM (recombinant rat PAI-1): 0% | inhibition at 1 µM (recombinant rat PAI-1): 14% | inhibition at 3 µM (recombinant rat PAI-1): 69% | inhibition at 10 µM (recombinant rat PAI-1): > 99%

COc1cc(OC)c(N(Cc2ccc(C(C)(C)C)cc2)C(=O)C(=O)O)cc1-c1ccc(OC(F)(F)F)cc1 [Compound 190]
inhibition at 0.1 µM (recombinant human PAI-1 [1]): 2% | inhibition at 0.3 µM (recombinant human PAI-1 [1]): 3% | inhibition at 1 µM (recombinant human PAI-1 [1]): 27% | inhibition at 3 µM (recombinant human PAI-1 [1]): 95% | inhibition at 5 µM (recombinant human PAI-1 [2]; [4]): 65% | inhibition at 10 µM (recombinant human PAI-1 [2]; [5]): 91% | inhibition at 25 µM (recombinant human PAI-1 [2]): 91% | inhibition at 0.3 µM (recombinant human PAI-1 [3]): 0% | inhibition at 1 µM (recombinant human PAI-1 [3]): 9% | inhibition at 3 µM (recombinant human PAI-1 [3]): 55% | inhibition at 0.3 µM (recombinant rat PAI-1): 0% | inhibition at 1 µM (recombinant rat PAI-1): 11% | inhibition at 3 µM (recombinant rat PAI-1): 66% | inhibition at 10 µM (recombinant rat PAI-1): > 99%

CCN(CC)c1ccc(N(Cc2ccc(C(C)(C)C)cc2)C(=O)C(=O)O)c(-c2ccc(OC(F)(F)F)cc2)c1 [Compound 208]
inhibition at 0.1 µM (recombinant human PAI-1 [1]): 10% | inhibition at 0.3 µM (recombinant human PAI-1 [1]): 1% | inhibition at 1 µM (recombinant human PAI-1 [1]): 36% | inhibition at 3 µM (recombinant human PAI-1 [1]): 99% | inhibition at 5 µM (recombinant human PAI-1 [2]; [4]): 89% | inhibition at 10 µM (recombinant human PAI-1 [2]; [5]): 98% | inhibition at 0.3 µM (recombinant human PAI-1 [3]): 0% | inhibition at 1 µM (recombinant human PAI-1 [3]): 6% | inhibition at 3 µM (recombinant human PAI-1 [3]): 36% | inhibition at 0.3 µM (recombinant rat PAI-1): 0% | inhibition at 1 µM (recombinant rat PAI-1): 12% | inhibition at 3 µM (recombinant rat PAI-1): 82% | inhibition at 10 µM (recombinant rat PAI-1): 81%
